One data set concerns human brain. The settings on record: in vivo; cited from earlier work.
Data set [1] in a line: Adverse effects after bolus intravenous injection of DDG, mice. Type of data set: in vivo, mouse. The settings on record: bolus i.v., 37 mg/kg to 248 mg/kg (mice and rats), awake up to 78 min. As to the method: (§1) Mice and rats, males and females at equal numbers, were intravenously injected with a bolus of varying doses of deuterated 2-deoxy-D-glucose (2-DG, DDG, with varying numbers and positions of deuteration). DDGs were provided by CortecNet, France. The injection was performed under sedation in all rats (18) and in 12 of 18 mice, after which the animals woke up within 1 minute. […] Further to euthanasia, the brain, liver, kidneys, heart, and muscle were excised and immediately placed in liquid nitrogen. The frozen tissue samples were kept at −80 °C until further processing.
(§2) The animals were observed awake for up to 78 min after the injection. The injection bolus was administered in less than 1 s and ranged from 0.1 mL for mice (ca. 25-40 g) to 0.6 mL for rats (ca. 120-160 g).

Data set [2] is described as follows: Biodistribution of deuterated 2-deoxy-D-glucose, 2H-NMR of tissue extracts, mice. Format: in vivo, mouse. As to the method:
as §1
(§3) Extraction of the water-soluble metabolites and the lipids was carried out using the dual-phase extraction procedure as described previously [Katz-Brull R, et al. Differential routing of choline in implanted breast cancer and normal organs. Article. Magnetic Resonance in Medicine. July 2001; 46(1):31-38. doi:10.1002/mrm.1157]. Briefly, a frozen sample is placed in 10 mL of ice-cold methanol containing 0.4 mM phenyl phosphonic acid for at least 1 hour. The tissue is then homogenized in ice-cold methanol using a tissue homogenizer. Equal volumes of chloroform and water are then added to the sample tube, and the mixture is vortexed and vigorously shaken. The samples are allowed to stand at 4 °C for at least 24 hours for phase separation. The methanol-water phase is aspirated, treated with Chelex to remove divalent ions, and then lyophilized for at least 24 hours. When the samples are dry (as powder), they are redissolved in 0.5 mL of double-distilled water and transferred to 5-mm NMR tubes for scanning. The samples are scanned in a 9.4 T NMR spectrometer.

Data set [3] is described as follows: Adverse effects after bolus intravenous injection of DDG, rats. Format: in vivo, rat. Particulars: bolus i.v., 37 mg/kg to 248 mg/kg (mice and rats), awake up to 78 min. As to the method:
as §1, §2

Data set [4] is described as follows: Biodistribution of deuterated 2-deoxy-D-glucose, 2H-NMR of tissue extracts, rats. Type of data set: in vivo, rat. The settings on record: for concentration: [D4]DDG bolus i.v., 37-55 mg/kg (non-labeled 2DG equivalent). The protocol:
as §1, §3

Here are results for 3 molecules from US20260355357A1, “DIAGNOSTIC AGENTS AND USES THEREOF” (HADASIT MEDICAL RESEARCH SERVICES AND DEVELOPMENT LTD., priority 2023, published 2026).

As to `OC[C@H]1OC(O)[C@H](F)[C@@H](O)[C@@H]1O` (stereo partly drawn) [[18F]-fluoro-2-deoxy-D-glucose], in the data set on human brain, the “accumulation in the human brain” value is “accumulates at very high levels in the human brain”.
On to `[2H]C([2H])(O)[C@H]1OC(O)C[C@@H](O)[C@@H]1O` (stereo partly drawn) [[D2]DDG, [6,6-D2]2-deoxy-D-glucose], for which the adverse effects entry in data set [1] and in data set [3] was “no adverse effects” throughout. For the same molecule, the concentration is 400 µM in data set [2] ([D2]DDG bolus i.v., 169-182 mg/kg (non-labeled 2DG equivalent), n=1, read-out: concentration in the liver) and 1190 µM in data set [2] ([D2]DDG bolus i.v., 169-182 mg/kg (non-labeled 2DG equivalent), n=2, read-out: concentration in the brain).
Take `[2H]C([2H])(O)[C@H]1OC(O)C[C@@]([2H])(O)[C@]1([2H])O` (stereo partly drawn) [[D4]DDG, [3,4,6,6-D4]2-deoxy-D-glucose]: the “2H-NMR signal in rat brain extract” value in data set [4] (FIG. 7, 45 mg/kg, awake 36 min, 9.4 T) was “due to the deuterons of [D4]DDG”; in data set [4] (FIG. 7 legend, awake 30 min) it was “the right signal (full arrow) is of deuterons of [3,4,6,6-D4]2-deoxy-D-glucose”. The concentration in data set [4] (n=2, read-out: concentration in the heart) stood at 2700 µM; in data set [4] (n=6, read-out: concentration in the brain) it was 1600 µM; in data set [4] (n=6, read-out: concentration in the muscle), 80 µM; in data set [2] ([D4]DDG bolus i.v., 43-45 mg/kg (non-labeled 2DG equivalent), n=1, read-out: concentration in the kidneys), 1790 µM; in data set [2] ([D4]DDG bolus i.v., 43-45 mg/kg (non-labeled 2DG equivalent), n=2, read-out: concentration in the heart) it was 3140 µM; in data set [2] ([D4]DDG bolus i.v., 43-45 mg/kg (non-labeled 2DG equivalent), n=2, read-out: concentration in the liver), 230 µM. The adverse effects entry in data set [1] and in data set [3] was “no adverse effects” throughout.
